Assay results: ChEMBL document CHEMBL4350974, “Synthesis and biological evaluation of methylpyrimidine-fused tricyclic diterpene analogs as novel oral anti-late-onset hypogonadism agents” (Eur J Med Chem, 2019)
The source made the active and inactive calls. No cut-off for these calls is given here.

Legend:
[1] = test system: Rattus norvegicus; experiment: Anti late-onset hypogonadism activity in cyclophosphamide-induced Sprague-Dawley rat model of partial androgen deficiency assessed as intratesticular testosterone level at 100 mg/kg, po qd administered for 4 weeks by ELISA (reference value: 137.99 +/- 19.27 nmol/L); format: functional
[2] = test system: Rattus norvegicus; experiment: Anti late-onset hypogonadism activity in cyclophosphamide-induced Sprague-Dawley rat model of partial androgen deficiency assessed as increase in StAR mRNA level at 50 to 100 mg/kg by RT-PCR analysis; format: functional, organism-based
[3] = Toxicity in cyclophosphamide - induced Sprague-Dawley rat model of partial androgen deficiency assessed as effect on Sertoli cells arrangement at 50 to 100 mg/kg by HE staining based histopathological analysis; format: organism-based; settings: in vivo
[4] = species: Rattus norvegicus; experiment: Anti late-onset hypogonadism activity in cyclophosphamide-induced Sprague-Dawley rat model of partial androgen deficiency assessed as prevention of testicular atrophy; format: functional, organism-based
[5] = test system: Rattus norvegicus; experiment: Anti late-onset hypogonadism activity in cyclophosphamide-induced Sprague-Dawley rat model of partial androgen deficiency assessed as weight of testis at 50 mg/kg, po qd administered for 4 weeks (reference value: 1.47 +/- 0.13 g); format: functional
[6] = test system: TM3; experiment: Induction of autophagy in mouse TM3 cells assessed as increase in LC3-II/LC3-I ratio at 10 to 100 uM after 24 hrs by Western blot analysis; format: functional, cell-based
[7] = Cytotoxicity against human HAF cells assessed as reduction in cell viability measured after 24 hrs by sulforhodamine B assay; format: cell-based
[8] = Cytotoxicity against human L02 cells assessed as reduction in cell viability measured after 24 hrs by sulforhodamine B assay; format: cell-based
[9] = Toxicity in cyclophosphamide - induced Sprague-Dawley rat model of partial androgen deficiency assessed as effect on lung at 50 to 100 mg/kg by HE staining based histopathological analysis; format: organism-based; settings: in vivo
[10] = Toxicity in cyclophosphamide - induced Sprague-Dawley rat model of partial androgen deficiency assessed as swelling of seminiferous tubules at 50 to 100 mg/kg by HE staining based histopathological analysis; format: organism-based; settings: in vivo
[11] = Toxicity in cyclophosphamide - induced Sprague-Dawley rat model of partial androgen deficiency assessed as sperm viability at 50 mg/kg by semen analysis (reference value: 95.1 +/- 3.2 %); format: organism-based; settings: in vivo
[12] = test system: Rattus norvegicus; experiment: Anti late-onset hypogonadism activity in cyclophosphamide-induced Sprague-Dawley rat model of partial androgen deficiency assessed as increase in 3 beta- HSD mRNA level at 100 mg/kg by RT-PCR analysis; format: functional, organism-based
[13] = species: Rattus norvegicus; experiment: Anti late-onset hypogonadism activity in cyclophosphamide-induced Sprague-Dawley rat model of partial androgen deficiency assessed as induction of autophagy in Leydig cells immunohistochemical analysis; format: functional, organism-based
[14] = Initial plasma concentration in Sprague-Dawley rat plasma at 5 mg/kg, iv by LC/MS analysis; format: ADME, organism-based
[15] = Half-life in Sprague-Dawley rat plasma at 5 mg/kg, iv up to 5 hrs by LC/MS analysis; format: ADME, organism-based
[16] = AUC (0 to t) in Sprague-Dawley rat plasma at 5 mg/kg, iv up to 5 hrs by LC/MS analysis; format: ADME, organism-based; design: time < 5 hr, dose 5 mg/kg, route intravenous
[17] = AUC (0 to infinity) in Sprague-Dawley rat plasma at 50 mg/kg, po by LC/MS analysis; format: ADME, organism-based; design: dose 50 mg/kg, route oral, time infinity
[18] = Volume of distribution in Sprague-Dawley rat plasma at 5 mg/kg, iv up to 5 hrs by LC/MS analysis; format: ADME, organism-based
[19] = Clearance in Sprague-Dawley rat at 5 mg/kg, iv up to 5 hrs by LC/MS analysis; format: ADME, organism-based; settings: in vivo
[20] = Oral bioavailability in Sprague-Dawley rat at 50 mg/kg by LC/MS analysis; format: ADME, organism-based; settings: in vivo
[21] = test system: TM3; experiment: Induction of autophagy in mouse TM3 cells assessed as increase in LC3 protein level at 10 to 100 uM after 24 hrs by DAPI staining based confocal microscopic method; format: functional, cell-based

## CNC(=O)c1cc2c(cc1OC)[C@@]1(C)Cc3cnc(C)nc3C(C)(C)C1CC2 (mixture of isomers)
[1]
  Activity: 185.58 nmol/L
[2]
  Activity: Active
[3]
  Activity: Toxic
[4]
  Activity: Active
[5]
  Activity: 1.54 g
[6]
  Activity: Active
[7]
  CC50 at 24 h: > 200 µM
[8]
  CC50 at 24 h: > 200 µM
[9]
  Activity: Non-Toxic
[10]
  Activity: Toxic
[11]
  Activity: 96.5%
[12]
  Activity: Active
[13]
  Activity: Active
[14]
  C0: 279 ng/mL
[15]
  half-life: 7.59 h
[16]
  AUC(0-t) at 5 h: 453 ng·h/mL
[17]
  AUC(0-inf): 3140 ng·h/mL
[18]
  Vd: 103 L/kg
[19]
  clearance: 155 mL/min/kg
[20]
  bioavailability: 57%
[21]
  Activity: Active
